Values quoted from earlier work, collected in patent publication US20250381239A1, “METHOD FOR IMPROVING SLEEP QUALITY OR INCREASING SLEEP DURATION AND METHOD FOR RELIEVING PSYCHOLOGICAL STRESS” (TOYO SHINYAKU CO., LTD., priority 2024, published 2025).

Assays:
mice [1] = conditions: mice subjected only to psychological stress
mice [2] = conditions: water immersion restraint test

SMILES	Effect on psychological stress ulcers (mice [1])	Effect on physical stress ulcers (mice [2])
NC(N)=Nc1nc(CSCCC(N)=NS(N)(=O)=O)cs1 [famotidine]	no effect	effective
CCN1CCCC1CNC(=O)c1cc(S(N)(=O)=O)ccc1OC (stereo not shown) [sulpiride]	effective	no effect
